From patent publication US20240059703A1 (AMGEN INC., priority 2021, published 2024) come the findings set out here.

Where two headings read alike, the source gives them in different places.

As usually defined, the IC50 is the midpoint of a concentration-inhibition curve.

For test [1], the system named is MIA PaCa-2 (human pancreatic carcinoma) cells. Kind of test: Cell Viability Assay (CellTiter-Glo), MIA PaCa-2. The test is classed as cell-based. As for the experimental part: (§1) Serially-diluted compound or DMSO was added to the cells, and plates were incubated at 37° C., 5% CO2 for 72 h. Cell viability was measured using a CellTiter-Glo® Luminescent Cell Viability Assay kit (Promega) according to the manufacturer's protocol. The luminescence signal of treated samples was normalized to DMSO control, and data were analyzed using a 4-parameter logistic model to calculate IC50 values.

In a further test the target is KRAS G12C (Homo sapiens (Human), UniProt P01116, C118A/G12C). Kind of test: 2 h coupled exchange assay. Type of test: biochemical. On the procedure:
The term “2 h coupled exchange assay” or “20 h coupled exchange assay” as used herein refers to the assay described in the Section entitled “BIOLOGICAL EVALUATION.”

For test [2], the system named is A549 (human lung carcinoma) cells. The experiment in a line: Cell Viability Assay (CellTiter-Glo), A549. The test is classed as cell-based. As for the experimental part: as §1, with “MIA PaCa-2 (human pancreatic carcinoma; ATCC CRL-1420) or A549 (human lung carcinoma; ATCC CCL-185) cells were cultured in RPMI 1640 medium containing 10% fetal bovine serum and 1× penicillin/streptomycin/L-glutamine. Cells were seeded in 384-well plates at a density of 1.67E+04 cells/mL and incubated at 37° C., 5% CO2, overnight. Serially-diluted” for “Serially-diluted”
Background: In ATP-based viability assays light output follows the ATP content of the culture.

Where [3] appears, read: Avg 2 h Coupled exchange IC50, 2 h compound pre-incubation.
Where [4] appears, read: Avg 2 h Coupled exchange IC50, 2 h compound pre-incubation, SOS-mediated nucleotide exchange.

KRAS G12C, sequence (P01116 other isoform, or with tags, fused parts or gaps G12C/C118A): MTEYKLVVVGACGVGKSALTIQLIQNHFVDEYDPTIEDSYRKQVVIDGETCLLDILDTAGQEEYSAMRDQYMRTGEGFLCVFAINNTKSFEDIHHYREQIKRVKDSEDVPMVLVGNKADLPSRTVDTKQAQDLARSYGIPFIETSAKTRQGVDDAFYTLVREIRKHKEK

As for `C=CC(=O)N1CC2(CCN(c3nc4c(c(-c5ccccc5C)c3C#N)CC[C@H](c3scnc3C)C4)C2)C1` (single isomer, unassigned) [Example 23-4], the 50% inhibitory concentration (IC50) in test [1] (72 h) is 184 nM; against KRAS G12C (setting [3]) it was 19 nM; in test [2] (Homo sapiens, A549, 72 h), 11000 nM.

With `C=CC(=O)N1CC2(CCN(c3nc4c(c(-c5cccc(O)c5)c3C#N)CCC(c3scnc3C)=C4)C2)C1` [Example 23-55, 4-(3-hydroxyphenyl)-7-(4-methyl-1,3-thiazol-5-yl)-2-(2-(2-propenoyl)-2,6-diazaspiro[3.4]octan-6-yl)-5,6-dihydro-3-quinolinecarbonitrile], the IC50 was 2120 nM in test [1] (Homo sapiens, MIA PaCa-2, 72 h); 120 nM against KRAS G12C (setting [3]); greater than 5000 nM in test [2] (Homo sapiens, A549, 72 h).

Take `Cc1ccc2[nH]ncc2c1-c1c(C#N)c(N2CCC3(CN(C(=O)/C=C/CN(C)C)C3)C2)nc2c1CCC(C)(C)C2` [Example 13-2, 2-(2-((2E)-4-(dimethylamino)-2-butenoyl)-2,6-diazaspiro[3.4]octan-6-yl)-7,7-dimethyl-4-(5-methyl-1H-indazol-4-yl)-5,6,7,8-tetrahydro-3-quinolinecarbonitrile]: the 50% inhibitory concentration (IC50) is 366 nM in test [1] (Homo sapiens, MIA PaCa-2, 72 h); 61 nM on KRAS G12C (setting [4]); 3700 nM in test [2] (Homo sapiens, A549, 72 h).

Regarding `C=CC(=O)N1CC2(CCN(c3nc4c(c(-c5ccccc5Cl)c3C#N)CCC(c3scnc3C)=C4)C2)C1` (single isomer, unassigned) [Example 23-42, (P)-4-(2-chlorophenyl)-7-(4-methyl-1,3-thiazol-5-yl)-2-(2-(2-propenoyl)-2,6-diazaspiro[3.4]octan-6-yl)-5,6-dihydro-3-quinolinecarbonitrile], the IC50 in test [1] (72 h) was 561 nM; against KRAS G12C (setting [3]), 66 nM; in test [2] (72 h) it was greater than 5000 nM.

Turning to `C=CC(=O)N1CC2(CCN(c3nc4c(c(-c5c(O)cccc5Cl)c3C#N)COC(c3scnc3C)C4)C2)C1` [Example 23-35, (7R)-4-(2-chloro-6-hydroxyphenyl)-7-(4-methyl-1,3-thiazol-5-yl)-2-(2-(2-propenoyl)-2,6-diazaspiro[3.4]octan-6-yl)-7,8-dihydro-5H-pyrano[4,3-b]pyridine-3-carbonitrile (7S)-4-(2-chloro-6-hydroxyphenyl)-7-(4-methyl-1,3-thiazol-5-yl)-2-(2-(2-propenoyl)-2,6-diazaspiro[3.4]octan-6-yl)-7,8-dihydro-5H-pyrano[4,3-b]pyridine-3-carbonitrile], the IC50 in test [1] (Homo sapiens, MIA PaCa-2, 72 h) came to 2400 nM; on KRAS G12C (setting [3]) it was 840 nM; in test [2] (Homo sapiens, A549, 72 h), 21000 nM.

On to `C=CC(=O)N1CC2(CCN(c3nc4c(c(-c5c(O)cccc5F)c3C#N)CCC(c3scnc3C)=C4)C2)C1` [Example 23-29, 4-(2-fluoro-6-hydroxyphenyl)-7-(4-methyl-1,3-thiazol-5-yl)-2-(2-(2-propenoyl)-2,6-diazaspiro[3.4]octan-6-yl)-5,6-dihydro-3-quinolinecarbonitrile], for which the IC50 in test [1] (Homo sapiens, MIA PaCa-2, 72 h) is 1320 nM; against KRAS G12C (setting [3]) it was 48 nM; in test [2] (Homo sapiens, A549, 72 h), greater than 5000 nM.

On to `C=CC(=O)N1CC2(CCN(c3nc4c(c(-c5cccc(C)c5C)n3)CC[C@@H](c3nccs3)C4)C2)C1` (racemic) [Example 22-3, 1-(6-((7R)-4-(2,3-dimethylphenyl)-7-(1,3-thiazol-2-yl)-5,6,7,8-tetrahydro-2-quinazolinyl)-2,6-diazaspiro[3.4]octan-2-yl)-2-propen-1-one|1-(6-((7S)-4-(2,3-dimethylphenyl)-7-(1,3-thiazol-2-yl)-5,6,7,8-tetrahydro-2-quinazolinyl)-2,6-diazaspiro[3.4]octan-2-yl)-2-propen-1-one], for which the 50% inhibitory concentration (IC50) in test [1] (72 h) was 3310 nM; on KRAS G12C (read-out: Avg 2 h Coupled exchange IC50, 2 h compound pre-incubation) it was 281 nM; in test [2] (72 h) it was greater than 5000 nM.

As to `C=CC(=O)N1CC2(CCN(c3nc4c(c(-c5cc(O)ccc5C)c3F)C[C@H]3C[C@@H]4C3(C)C)C2)C1` (single isomer, unassigned) [Example 14-59], the IC50 in test [1] (Homo sapiens, MIA PaCa-2, 72 h) is 293 nM; at KRAS G12C (setting [3]) it was 25 nM; in test [2] (Homo sapiens, A549, 72 h), greater than 5000 nM.

With `C=CC(=O)N1CC2(CCN(c3nc4c(c(-c5cccc(F)c5O)c3C#N)CCC(c3scnc3C)=C4)C2)C1` [Example 23-54, 4-(3-fluoro-2-hydroxyphenyl)-7-(4-methyl-1,3-thiazol-5-yl)-2-(2-(2-propenoyl)-2,6-diazaspiro[3.4]octan-6-yl)-5,6-dihydro-3-quinolinecarbonitrile], the concentration for half-maximal inhibition (IC50) is 2110 nM in test [1] (Homo sapiens, MIA PaCa-2, 72 h); 112 nM at KRAS G12C (setting [3]); greater than 5000 nM in test [2] (Homo sapiens, A549, 72 h).

Consider `C=CC(=O)N1CC2(CCN(c3nc4c(c(-c5cccc6cc(O)ccc56)c3C#N)COC(C)(C)C4)C2)C1` [Example 12-41, 4-(6-hydroxy-1-naphthalenyl)-7,7-dimethyl-2-(2-(2-propenoyl)-2,6-diazaspiro[3.4]octan-6-yl)-7,8-dihydro-5H-pyrano[4,3-b]pyridine-3-carbonitrile], for which the IC50 in test [1] (Homo sapiens, MIA PaCa-2, 72 h) is 502 nM; on KRAS G12C (setting [4]), 110 nM; in test [2] (Homo sapiens, A549, 72 h) it was greater than 5000 nM.

Turning to `C=CC(=O)N1CC2(CCN(c3nc4c(c(-c5cccc(F)c5O)c3C)CC[C@@H](c3c(C)cnn3C)C4)C2)C1` [Example 14-94, 1-(6-((7R)-7-(1,4-dimethyl-1H-pyrazol-5-yl)-4-(3-fluoro-2-hydroxyphenyl)-3-methyl-5,6,7,8-tetrahydro-2-quinolinyl)-2,6-diazaspiro[3.4]octan-2-yl)-2-propen-1-one], the half-inhibitory concentration (IC50) in test [1] (Homo sapiens, MIA PaCa-2, 72 h) was determined as 118 nM; against KRAS G12C (setting [3]), 228 nM; in test [2] (Homo sapiens, A549, 72 h) it was 14400 nM.

As for `C=CC(=O)N1CC2(CCN(c3nc4c(c(-c5cc(O)cc6ccccc56)c3Cl)COC(C)(C)C4)C2)C1` [Example 2-76, 1-(6-(3-chloro-4-(3-hydroxy-1-naphthalenyl)-7,7-dimethyl-7,8-dihydro-5H-pyrano[4,3-b]pyridin-2-yl)-2,6-diazaspiro[3.4]octan-2-yl)-2-propen-1-one], the IC50 was 26 nM in test [1] (Homo sapiens, MIA PaCa-2, 72 h) and greater than 5000 nM in test [2] (Homo sapiens, A549, 72 h).

Take `C=CC(=O)N1CC2(CCN(c3nc4c(c(-c5cc(O)cc6ccccc56)c3F)C[C@H]3C[C@@H]4C3(C)C)C2)C1` [Example 14-1, 1-(6-((1R,9R)-5-fluoro-6-(3-hydroxy-1-naphthalenyl)-10,10-dimethyl-3-azatricyclo[7.1.1.0^2,7]undeca-2,4,6-trien-4-yl)-2,6-diazaspiro[3.4]octan-2-yl)-2-propen-1-one]: the IC50 in test [1] (Homo sapiens, MIA PaCa-2, 72 h) was 39 nM; in test [2] (Homo sapiens, A549, 72 h), greater than 5000 nM.

For `C=CC(=O)N1CC2(CCN(c3nc4c(c(-c5cc(O)cc6ccccc56)c3Cl)COC(C)(C)C4)C2)C1` (single isomer, unassigned) [Example 2-78, (P)-1-(6-(3-chloro-4-(3-hydroxy-1-naphthalenyl)-7,7-dimethyl-7,8-dihydro-5H-pyrano[4,3-b]pyridin-2-yl)-2,6-diazaspiro[3,4]octan-2-yl)-2-propen-1-one], the IC50 in test [1] (Homo sapiens, MIA PaCa-2, 72 h) is 14 nM; in test [2] (Homo sapiens, A549, 72 h), greater than 5000 nM.

For the compound `C=CC(=O)N1CC2(CCN(c3nc4c(c(-c5cc(O)cc6ccccc56)c3F)C[C@H]3C[C@@H]4C3(C)C)C2)C1` (single isomer, unassigned) [Example 14-77], the half-maximal inhibitory concentration (IC50) in test [2] (Homo sapiens, A549, 72 h) is greater than 5000 nM.

In the case of `C=CC(=O)N1CC2(CCN(c3nc4c(c(-c5cccc6[nH]ccc56)c3C#N)C[C@H]3C[C@@H]4C3(C)C)C2)C1` [Example 12-42, (1R,9R)-6-(1H-indol-4-yl)-10,10-dimethyl-4-(2-(2-propenoyl)-2,6-diazaspiro[3.4]octan-6-yl)-3-azatricyclo[7.1.1.0^2,7] undeca-2,4,6-triene-5-carbonitrile], the 50% inhibitory concentration (IC50) against KRAS G12C (setting [4]) came out at 878 nM.

On KRAS G12C (setting [3]), `Cc1ccc2[nH]ncc2c1-c1c(C#N)c(N2CCC3(CN(C(=O)/C=C/COC(F)F)C3)C2)nc2c1CCC(C)(C)C2` [Example 30-1, 2-(2-((2E)-4-(difluoromethoxy)-2-butenoyl)-2,6-diazaspiro[3.4]octan-6-yl)-7,7-dimethyl-4-(5-methyl-1H-indazol-4-yl)-5,6,7,8-tetrahydro-3-quinolinecarbonitrile] came in with an IC50 of 487 nM.

Compound `C=CC(=O)N1CC2(CCN(c3nc4c(c(-c5c(C)ccc6[nH]ncc56)c3C#N)CN(C)CC4)C2)C1` [Example 13-22, 6-methyl-4-(5-methyl-1H-indazol-4-yl)-2-(2-(2-propenoyl)-2,6-diazaspiro[3.4]octan-6-yl)-5,6,7,8-tetrahydro-1,6-naphthyridine-3-carbonitrile] yielded a 50% inhibitory concentration (IC50) against KRAS G12C (setting [4]) of 259 nM.

For the compound `C=CC(=O)N1CC2(CCN(c3nc4cc(-c5cc(C)nn5C)ccc4c(-c4ccccc4Cl)c3C)C2)C1` [Example 16-2, 1-(6-(4-(2-chlorophenyl)-7-(1,3-dimethyl-1H-pyrazol-5-yl)-3-methyl-2-quinolinyl)-2,6-diazaspiro[3.4]octan-2-yl)-2-propen-1-one], on KRAS G12C (setting [3]), the IC50 came to 648 nM.

On KRAS G12C (setting [4]), `C=CC(=O)N1CC2(CCN(c3nc4c(c(-c5cc(O)cc(F)c5F)c3C)CCC(C)(C)C4)C2)C1` [Example 2-26, 1-(6-(4-(2,3-difluoro-5-hydroxyphenyl)-3,7,7-trimethyl-5,6,7,8-tetrahydro-2-quinolinyl)-2,6-diazaspiro[3.4]octan-2-yl)-2-propen-1-one] gave an IC50 of 234 nM.
